Experimental data from paper PMC3382171 (PLoS ONE, 2012).

How the values were obtained:
Test in all cases: biochemical
MST2 = biological target: T1, MST2 (Homo sapiens, UniProt Q13188); conditions: read-out: Dundee KSS % inhibition at 1uM
T1 construct: gene STK3
Protocol: (§1) The METi and RAFi were screened against kinase panels (SelectScreen, Invitrogen; University of Dundee, Division of Signal Transduction Therapy, UK; Upstate Biotechnology/Millipore, Billerica, MA). In these selectivity assays the concentration of ATP was set to the Km value of ATP for each kinase tested to allow for a relative potency comparison between the various kinases. The compounds were tested at 1 µM final concentration. […] (A) Kinase selectivity screen (KSS) performed at Upstate Biotechnology. […] (B) KSS performed at University of Dundee (Division of Signal Transduction Therapy). […] (PDF) Click here for additional data file.

IKKbeta = biological target: T2, IKKbeta (Homo sapiens, UniProt O14920); conditions: read-out: Dundee KSS % inhibition at 1uM
T2 construct: gene IKBKB
T2 sequence (O14920 whole entry): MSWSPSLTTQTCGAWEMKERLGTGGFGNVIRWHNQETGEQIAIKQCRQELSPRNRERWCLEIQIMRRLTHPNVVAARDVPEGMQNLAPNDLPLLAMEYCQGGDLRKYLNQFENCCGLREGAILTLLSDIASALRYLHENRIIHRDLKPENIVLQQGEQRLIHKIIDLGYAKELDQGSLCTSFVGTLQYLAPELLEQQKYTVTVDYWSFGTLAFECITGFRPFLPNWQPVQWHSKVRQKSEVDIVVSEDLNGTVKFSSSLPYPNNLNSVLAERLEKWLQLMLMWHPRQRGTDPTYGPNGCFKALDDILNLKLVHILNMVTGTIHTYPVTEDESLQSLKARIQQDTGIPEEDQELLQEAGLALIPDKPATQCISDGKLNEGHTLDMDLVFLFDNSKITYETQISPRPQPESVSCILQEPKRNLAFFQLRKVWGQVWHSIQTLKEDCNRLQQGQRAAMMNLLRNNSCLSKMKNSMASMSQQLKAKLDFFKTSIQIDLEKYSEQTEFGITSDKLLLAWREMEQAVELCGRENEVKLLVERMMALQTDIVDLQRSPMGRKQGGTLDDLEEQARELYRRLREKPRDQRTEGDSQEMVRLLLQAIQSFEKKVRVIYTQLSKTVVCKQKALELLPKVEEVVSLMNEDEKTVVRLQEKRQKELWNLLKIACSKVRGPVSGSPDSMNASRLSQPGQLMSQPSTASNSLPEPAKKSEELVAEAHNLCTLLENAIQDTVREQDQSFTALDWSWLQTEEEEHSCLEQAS
Protocol: as §1

MAPKAP-K1b = biological target: T3, MAPKAP-K1b (Homo sapiens, UniProt P51812); conditions: read-out: Dundee KSS % inhibition at 1uM
T3 construct: gene RPS6KA3
Protocol: as §1

JNK/SAPK1c = biological target: T4, JNK/SAPK1c (Homo sapiens, UniProt P45983); conditions: read-out: Dundee KSS % inhibition at 1uM
T4 construct: gene MAPK8
Protocol: as §1

MKK1 = biological target: T5, MKK1 (Homo sapiens, UniProt Q02750); conditions: read-out: Dundee KSS % inhibition at 1uM
T5 construct: gene MAP2K1
T5 sequence (Q02750 whole entry): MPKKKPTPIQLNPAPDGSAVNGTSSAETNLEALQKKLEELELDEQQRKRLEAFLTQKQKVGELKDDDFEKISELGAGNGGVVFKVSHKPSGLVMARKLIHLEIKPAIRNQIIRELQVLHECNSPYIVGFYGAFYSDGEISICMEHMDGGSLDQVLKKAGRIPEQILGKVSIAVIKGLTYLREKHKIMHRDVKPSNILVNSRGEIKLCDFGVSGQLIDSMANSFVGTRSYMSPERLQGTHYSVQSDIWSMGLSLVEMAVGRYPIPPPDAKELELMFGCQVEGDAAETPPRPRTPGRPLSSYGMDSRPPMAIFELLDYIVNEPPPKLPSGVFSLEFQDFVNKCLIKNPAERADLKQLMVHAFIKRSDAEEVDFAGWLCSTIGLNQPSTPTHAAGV
Protocol: as §1

AuroraC = biological target: T6, AuroraC (Homo sapiens, UniProt Q9UQB9); conditions: read-out: Dundee KSS % inhibition at 1uM
T6 construct: gene AURKC
Protocol: as §1

CHK1 = biological target: T7, CHK1 (Homo sapiens, UniProt O14757); conditions: read-out: Dundee KSS % inhibition at 1uM
T7 construct: gene CHEK1
T7 sequence (O14757 whole entry): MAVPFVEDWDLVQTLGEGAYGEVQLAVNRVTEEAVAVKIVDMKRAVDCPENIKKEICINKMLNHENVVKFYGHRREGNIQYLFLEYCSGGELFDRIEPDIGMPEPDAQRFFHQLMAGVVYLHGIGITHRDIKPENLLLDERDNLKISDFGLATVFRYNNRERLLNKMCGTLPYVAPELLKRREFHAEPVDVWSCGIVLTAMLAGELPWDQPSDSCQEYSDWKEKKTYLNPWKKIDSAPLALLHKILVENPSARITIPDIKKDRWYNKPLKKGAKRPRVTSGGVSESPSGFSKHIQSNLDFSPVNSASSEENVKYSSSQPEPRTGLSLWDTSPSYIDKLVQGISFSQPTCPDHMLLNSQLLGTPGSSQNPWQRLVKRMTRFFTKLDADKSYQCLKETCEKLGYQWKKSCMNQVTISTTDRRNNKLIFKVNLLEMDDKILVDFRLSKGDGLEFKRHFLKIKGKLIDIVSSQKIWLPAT
Protocol: as §1

PIM3 = PIM3 (Homo sapiens, UniProt Q86V86); conditions: read-out: Dundee KSS % inhibition at 1uM
Protocol: as §1

SAPK4/p38d = biological target: T8, SAPK4/p38d (Homo sapiens, UniProt O15264); conditions: read-out: Dundee KSS % inhibition at 1uM
T8 construct: gene MAPK13
Protocol: as §1

ERK8 = biological target: T9, ERK8 (Homo sapiens, UniProt Q8TD08); conditions: read-out: Dundee KSS % inhibition at 1uM
T9 construct: gene MAPK15
T9 sequence (Q8TD08 whole entry): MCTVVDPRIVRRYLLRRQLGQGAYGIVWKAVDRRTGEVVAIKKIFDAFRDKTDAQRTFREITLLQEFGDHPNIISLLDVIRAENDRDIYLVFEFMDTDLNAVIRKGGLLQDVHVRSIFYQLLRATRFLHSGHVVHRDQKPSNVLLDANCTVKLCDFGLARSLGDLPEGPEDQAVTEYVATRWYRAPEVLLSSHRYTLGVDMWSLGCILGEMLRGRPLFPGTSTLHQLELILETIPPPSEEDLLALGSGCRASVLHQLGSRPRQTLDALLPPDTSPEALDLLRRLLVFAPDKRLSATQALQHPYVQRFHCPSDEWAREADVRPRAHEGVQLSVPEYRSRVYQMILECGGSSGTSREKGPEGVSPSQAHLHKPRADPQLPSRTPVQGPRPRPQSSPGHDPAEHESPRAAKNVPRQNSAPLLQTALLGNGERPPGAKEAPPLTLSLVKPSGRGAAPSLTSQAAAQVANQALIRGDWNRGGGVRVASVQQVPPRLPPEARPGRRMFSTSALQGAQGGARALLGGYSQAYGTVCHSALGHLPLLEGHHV
Protocol: as §1

SRPK1 = SRPK1 (Homo sapiens, UniProt Q96SB4); conditions: read-out: Dundee KSS % inhibition at 1uM
Sequence of SRPK1 (Q96SB4 whole entry): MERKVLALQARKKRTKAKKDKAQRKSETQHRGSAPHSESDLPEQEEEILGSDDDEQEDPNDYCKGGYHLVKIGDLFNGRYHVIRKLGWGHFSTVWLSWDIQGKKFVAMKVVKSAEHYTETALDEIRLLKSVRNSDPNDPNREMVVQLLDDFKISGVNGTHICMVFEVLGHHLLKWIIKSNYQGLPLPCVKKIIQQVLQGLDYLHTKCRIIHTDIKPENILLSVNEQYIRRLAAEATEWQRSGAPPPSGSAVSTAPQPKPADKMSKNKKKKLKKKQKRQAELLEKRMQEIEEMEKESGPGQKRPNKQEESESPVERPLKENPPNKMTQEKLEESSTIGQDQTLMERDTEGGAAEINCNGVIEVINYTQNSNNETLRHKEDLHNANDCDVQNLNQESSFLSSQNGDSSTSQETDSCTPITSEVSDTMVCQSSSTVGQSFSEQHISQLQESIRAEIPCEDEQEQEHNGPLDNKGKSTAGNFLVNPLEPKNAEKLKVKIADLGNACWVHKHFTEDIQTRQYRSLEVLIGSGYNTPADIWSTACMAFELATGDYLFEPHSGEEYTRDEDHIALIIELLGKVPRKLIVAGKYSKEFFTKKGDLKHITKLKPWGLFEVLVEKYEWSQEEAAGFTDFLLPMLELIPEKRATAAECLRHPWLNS
Protocol: as §1

chicken SRC = chicken SRC (Gallus gallus, UniProt P00523); conditions: read-out: Dundee KSS % inhibition at 1uM
Protocol: as §1

CDK2/CyclinA = CDK2/CyclinA (Homo sapiens, UniProt P24941); conditions: read-out: Dundee KSS % inhibition at 1uM
Protocol: as §1

deltaPH-PKBbeta = biological target: T10, deltaPH-PKBbeta (Homo sapiens, UniProt P31751); conditions: read-out: Dundee KSS % inhibition at 1uM
T10 construct: gene AKT2; delta PH
Protocol: as §1

PIM1 = PIM1 (Homo sapiens, UniProt P11309); conditions: read-out: Dundee KSS % inhibition at 1uM
Protocol: as §1

JNK3 = biological target: T11, JNK3 (Homo sapiens, UniProt P53779); conditions: read-out: Dundee KSS % inhibition at 1uM
T11 construct: gene MAPK10
Protocol: as §1

SAPK3/p38g = biological target: T12, SAPK3/p38g (Homo sapiens, UniProt P53778); conditions: read-out: Dundee KSS % inhibition at 1uM
T12 construct: gene MAPK12
Protocol: as §1

MLCK = biological target: T13, MLCK (Homo sapiens, UniProt Q15746); conditions: read-out: Dundee KSS % inhibition at 1uM
T13 construct: gene MYLK
Protocol: as §1

IGF1R = IGF1R (Homo sapiens, UniProt P08069); conditions: read-out: Upstate KSS % inhibition at 1uM
Sequence of IGF1R (P08069 31-736): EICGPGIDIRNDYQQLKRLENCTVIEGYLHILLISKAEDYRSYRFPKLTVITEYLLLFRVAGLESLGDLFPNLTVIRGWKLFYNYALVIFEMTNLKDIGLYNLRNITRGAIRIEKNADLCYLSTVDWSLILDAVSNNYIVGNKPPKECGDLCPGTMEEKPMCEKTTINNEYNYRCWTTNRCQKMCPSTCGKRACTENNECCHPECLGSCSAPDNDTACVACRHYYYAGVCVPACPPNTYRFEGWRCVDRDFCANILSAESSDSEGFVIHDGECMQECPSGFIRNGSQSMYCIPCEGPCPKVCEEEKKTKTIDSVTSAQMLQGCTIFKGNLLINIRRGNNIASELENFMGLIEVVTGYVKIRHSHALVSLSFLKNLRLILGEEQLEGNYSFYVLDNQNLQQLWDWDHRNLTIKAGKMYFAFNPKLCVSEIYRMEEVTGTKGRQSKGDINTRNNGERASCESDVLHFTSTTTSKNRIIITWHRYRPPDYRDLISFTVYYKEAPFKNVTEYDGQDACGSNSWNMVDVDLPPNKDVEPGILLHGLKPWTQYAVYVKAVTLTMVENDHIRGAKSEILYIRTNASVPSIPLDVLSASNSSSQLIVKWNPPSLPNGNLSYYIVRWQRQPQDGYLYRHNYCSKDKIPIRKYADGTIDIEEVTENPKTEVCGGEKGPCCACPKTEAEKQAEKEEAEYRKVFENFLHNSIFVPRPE
Sequence of IGF1R (P08069 741-1367): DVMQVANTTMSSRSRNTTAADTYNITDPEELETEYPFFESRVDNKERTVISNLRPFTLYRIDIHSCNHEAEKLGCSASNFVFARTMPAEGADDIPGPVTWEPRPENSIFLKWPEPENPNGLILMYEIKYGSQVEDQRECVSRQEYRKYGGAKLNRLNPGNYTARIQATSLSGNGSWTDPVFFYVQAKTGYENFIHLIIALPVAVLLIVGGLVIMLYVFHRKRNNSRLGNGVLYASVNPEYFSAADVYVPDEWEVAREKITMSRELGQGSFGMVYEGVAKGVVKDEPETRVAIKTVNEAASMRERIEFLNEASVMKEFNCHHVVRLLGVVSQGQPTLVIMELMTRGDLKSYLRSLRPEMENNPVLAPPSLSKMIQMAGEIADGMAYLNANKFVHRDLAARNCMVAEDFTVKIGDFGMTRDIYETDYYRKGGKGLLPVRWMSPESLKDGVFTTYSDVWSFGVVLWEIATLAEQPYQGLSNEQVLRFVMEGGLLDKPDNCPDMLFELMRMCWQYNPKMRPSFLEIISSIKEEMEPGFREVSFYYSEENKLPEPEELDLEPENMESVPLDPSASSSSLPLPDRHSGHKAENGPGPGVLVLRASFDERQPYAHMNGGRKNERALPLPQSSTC
Protocol: as §1

MNK1 = biological target: T14, MNK1 (Homo sapiens, UniProt Q9BUB5); conditions: read-out: Dundee KSS % inhibition at 1uM
T14 construct: gene MKNK1
T14 sequence (Q9BUB5 whole entry): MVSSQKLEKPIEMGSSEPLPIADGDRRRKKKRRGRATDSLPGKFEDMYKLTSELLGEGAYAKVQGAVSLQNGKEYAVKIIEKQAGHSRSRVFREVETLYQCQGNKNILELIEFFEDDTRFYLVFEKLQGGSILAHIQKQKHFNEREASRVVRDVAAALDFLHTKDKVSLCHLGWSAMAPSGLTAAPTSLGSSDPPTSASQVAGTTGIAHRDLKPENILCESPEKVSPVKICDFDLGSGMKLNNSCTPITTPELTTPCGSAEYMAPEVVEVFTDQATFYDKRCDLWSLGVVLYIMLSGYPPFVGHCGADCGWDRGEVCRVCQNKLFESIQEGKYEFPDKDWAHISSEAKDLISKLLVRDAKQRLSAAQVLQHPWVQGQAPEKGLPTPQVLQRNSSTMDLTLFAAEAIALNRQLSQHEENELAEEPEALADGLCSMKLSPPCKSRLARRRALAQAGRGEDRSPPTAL
Protocol: as §1

PBK = PBK (Homo sapiens, UniProt Q96KB5); conditions: read-out: Dundee KSS % inhibition at 1uM
Sequence of PBK (Q96KB5 whole entry): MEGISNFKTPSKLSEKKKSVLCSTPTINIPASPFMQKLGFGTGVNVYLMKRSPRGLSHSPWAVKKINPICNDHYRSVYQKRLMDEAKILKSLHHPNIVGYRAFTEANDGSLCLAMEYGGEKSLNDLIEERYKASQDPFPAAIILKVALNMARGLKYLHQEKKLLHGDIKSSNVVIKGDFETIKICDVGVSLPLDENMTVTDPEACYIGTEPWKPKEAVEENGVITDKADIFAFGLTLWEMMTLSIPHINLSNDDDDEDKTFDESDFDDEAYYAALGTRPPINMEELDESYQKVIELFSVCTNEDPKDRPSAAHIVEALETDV
Protocol: as §1

EF2K = biological target: T15, EF2K (Homo sapiens, UniProt O00418); conditions: read-out: Dundee KSS % inhibition at 1uM
T15 construct: gene EEF2K
Protocol: as §1

DYRK2 = biological target: T16, DYRK2 (Homo sapiens, UniProt Q92630); conditions: read-out: Dundee KSS % inhibition at 1uM
T16 sequence (Q92630 1-601): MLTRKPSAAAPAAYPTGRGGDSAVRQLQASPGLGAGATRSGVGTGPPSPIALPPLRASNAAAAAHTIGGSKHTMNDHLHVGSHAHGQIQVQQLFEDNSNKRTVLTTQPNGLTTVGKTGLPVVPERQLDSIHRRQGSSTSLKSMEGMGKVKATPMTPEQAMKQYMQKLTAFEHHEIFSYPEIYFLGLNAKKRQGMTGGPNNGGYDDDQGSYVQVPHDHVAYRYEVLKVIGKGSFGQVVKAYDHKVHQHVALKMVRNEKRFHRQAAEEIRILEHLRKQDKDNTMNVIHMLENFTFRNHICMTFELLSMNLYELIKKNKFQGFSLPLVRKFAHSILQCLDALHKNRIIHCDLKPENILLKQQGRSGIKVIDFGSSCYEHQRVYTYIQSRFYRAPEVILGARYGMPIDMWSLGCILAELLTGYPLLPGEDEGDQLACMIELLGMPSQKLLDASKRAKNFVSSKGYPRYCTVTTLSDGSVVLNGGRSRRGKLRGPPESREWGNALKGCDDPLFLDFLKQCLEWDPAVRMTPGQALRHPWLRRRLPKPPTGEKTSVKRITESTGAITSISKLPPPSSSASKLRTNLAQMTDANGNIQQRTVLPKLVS
Protocol: as §1

SAPK2A/p38 = biological target: T17, SAPK2A/p38 (Homo sapiens, UniProt Q16539); conditions: read-out: Dundee KSS % inhibition at 1uM
T17 construct: gene MAPK14
Protocol: as §1

rat DYRK1A = rat DYRK1A (Rattus norvegicus, UniProt Q63470); conditions: read-out: Dundee KSS % inhibition at 1uM
Protocol: as §1

MNK2 = biological target: T18, MNK2 (Homo sapiens, UniProt Q9HBH9); conditions: read-out: Dundee KSS % inhibition at 1uM
T18 construct: gene MKNK2
Protocol: as §1

**Q.** What does the source list for `OCCn1cc(-c2cnc3nnn(Cc4ccc5ncccc5c4)c3n2)cn1` [METi, PF-04217903]?
**A.** inhibition at 1 µM (MST2): 6.16%; inhibition at 1 µM (IKKbeta): 22.5%; inhibition at 1 µM (MAPKAP-K1b): 24.9%; inhibition at 1 µM (JNK/SAPK1c): 4.04%; inhibition at 1 µM (MKK1): 25.2%; inhibition at 1 µM (AuroraC): 6.48%; inhibition at 1 µM (CHK1): -1.96%; inhibition at 1 µM (PIM3): 10.7%; inhibition at 1 µM (SAPK4/p38d): 4.67%; inhibition at 1 µM (ERK8): 14.8%; inhibition at 1 µM (SRPK1): 13.5%; inhibition at 1 µM (chicken SRC): -11.5%; inhibition at 1 µM (CDK2/CyclinA): 2.24%; inhibition at 1 µM (deltaPH-PKBbeta): 8.16%; inhibition at 1 µM (PIM1): 4.46%; inhibition at 1 µM (JNK3): -2.36%; inhibition at 1 µM (SAPK3/p38g): 3.7%; inhibition at 1 µM (MLCK): 9.24%; inhibition at 1 µM (IGF1R): 103%; inhibition at 1 µM (MNK1): -8.48%; inhibition at 1 µM (PBK): 5.14%; inhibition at 1 µM (EF2K): -13.1%; inhibition at 1 µM (DYRK2): 14.8%; inhibition at 1 µM (SAPK2A/p38): 2.86%; inhibition at 1 µM (rat DYRK1A): 2.39%; inhibition at 1 µM (MNK2): 13.4%
